# Test results published in US20220364179A1, “METHODS AND COMPOSITIONS FOR ASSESSING AND PREDICTING THERAPEUTIC RESPONSE” (Lankenau Institute for Medical Research, priority 2019, published 2022).
# How the values were obtained:
# mouse tumor models = details: cited from earlier work
# brain metastases = assay: whole brain radiotherapy with low-dose chloroquine in patients with brain metastases; type: in vivo, human; details: low-dose chloroquine in continuous cycles one week before and during standard of care irradiation; N=20; P=0.07
# rheumatoid arthritis = details: mouse model of rheumatoid arthritis; Merlo et al. 2014; cited from earlier work
# [1] = tested on: metastatic adenocarcinoma of the pancreas; assay: Phase I/II trial NCT02077881: indoximod with gemcitabine plus nab-paclitaxel, responses by IDO2 genotype; type: in vivo, human; details: for PR + CR (positive response), row % / PR + CR, number of patients: + gemcitabine plus nab-paclitaxel
# Experimental: The treatment protocol was as described in ClinicalTrials.gov Identifier NCT02077881, which was a Phase I/II trial designed to evaluate the combination of the immunotherapeutic agent indoximod (an IDO inhibitor) and the standard of care chemotherapy gemcitabine plus nab-paclitaxel in subjects with metastatic adenocarcinoma of the pancreas. Participants received oral indoximod (600 mg, […], or 1200 mg according to their assigned dose cohort) twice daily for 28 days concurrently with IV Nab-paclitaxel 125 mg/m^2 given intravenously over 30-40 minutes for 3 weeks (days 1, 8 and 15) with 1 week rest, followed by gemcitabine 1000 mg/m^2 given intravenously over 30 minutes for 3 weeks (days 1, 8 and 15) with 1 week rest. All subjects will receive the standard 28-day gemcitabine plus nab-paclitaxel regimen. Twice daily oral indoximod was administered concurrently in continuous 28 day cycles. Patients continued until they experienced disease progression or significant toxicity.
# Genotyping to detect the wild-type IDO2 alleles or a polymorphisms in one or both alleles was performed using a protocol as provided in Example 2.
# Two-sample tests of independent proportions were performed to compare the percentage of positive responders between two groups. Observed versus expected genotype distributions were compared using one-sample tests of proportions. The significance level was set to 0.05 and all tests were one-sided except for the tests comparing response by sex and the tests comparing observed and expected genotypes. Analyses were performed in Stata/MP 15.1 (StataCorp LP., Texas, USA). See the data in FIG. 6A -6D.
# melanoma = melanoma cohort, response to therapy by IDO2 genotype; type: in vivo, human
# Experimental: In the melanoma cohort, 84 patients were genotyped with 6 patients returning uncertain results. The remaining 78 patients, including 52 males and 26 females, were treated and analyzed in a similar way to the PDAC patients of Example 3 above. The results of the 46 patients, including 31 males and 15 females, in this cohort that responded positively to IDO and/or other indicated therapies were also analyzed.
# [2] = Females, all genotypes, no exclusions, Total 40
# [3] = Females, excludes (+/p or p/p) uncertain genotype, Total 32
# [4] = Males, all genotypes, no exclusions, Total 67
# [5] = Males, excludes (+/p or p/p) uncertain genotype, Total 47
# [6] = genotype +/+ or +/p, both sexes, Total 56
# [7] = genotype +/+ or +/p, females only, Total 22
# [8] = genotype +/+ or +/p, males only, Total 34
# [9] = genotype +/+, both sexes, excludes uncertain genotype, Total 15
# [10] = genotype +/+, females only, excludes uncertain genotype, Total 7
# [11] = genotype +/+, males only, excludes uncertain genotype, Total 8
# [12] = genotype +/p, both sexes, excludes uncertain genotype, Total 41
# [13] = genotype +/p, females only, excludes uncertain genotype, Total 15
# [14] = genotype +/p, males only, excludes uncertain genotype, Total 26
# [15] = genotype p/p, both sexes, excludes uncertain genotype, Total 23
# [16] = genotype p/p, females only, excludes uncertain genotype, Total 10
# [17] = genotype p/p, males only, excludes uncertain genotype, Total 13
structure (smiles),measurement,setting,value
"Cn1cc(CC(N)C(=O)O)c2ccccc21 [D, L-1MT]",effect on efficacy of radiotherapy,mouse tumor models,improve the efficacy of radiotherapy
CCN(CC)CCCC(C)Nc1ccnc2cc(Cl)ccc12 (stereo not drawn) [chloroquine],survival outcomes,brain metastases,trend in improvement of survival outcomes
"Cn1cc(C[C@H](N)C(=O)O)c2ccccc21 [indoximod, 1-methyl-tryptophan]",therapeutic responses after deletion of the IDO2 gene,rheumatoid arthritis,ablate therapeutic responses
same,"PR + CR (positive response), row %",[1]; [2],60.0%
same,"PR + CR, number of patients",[1]; [2],24
same,"PR + CR (positive response), row %",[1]; [3],62.5%
same,"PR + CR, number of patients",[1]; [3],20
same,"PR + CR (positive response), row %",[1]; [4],43.3%
same,"PR + CR, number of patients",[1]; [4],29
same,"PR + CR (positive response), row %",[1]; [5],51.1%
same,"PR + CR, number of patients",[1]; [5],24
same,"PR + CR, number of patients","[1]; both sexes, excludes (+/p or p/p) uncertain genotype, Total 79",44
same,"PR + CR (positive response), row %","[1]; both sexes, includes uncertain genotype, Total 51",35.3%
same,"PR + CR, number of patients","[1]; genotype (+/p or p/p) or p/p, both sexes, includes uncertain genotype, Total 51",18
same,"PR + CR, number of patients","[1]; genotype (+/p or p/p) or p/p, males only, includes uncertain genotype, Total 33",9
same,"PR + CR (positive response), row %",[1]; [6],62.5%
same,"PR + CR, number of patients",[1]; [6],35
same,"PR + CR (positive response), row %",[1]; [7],68.2%
same,"PR + CR, number of patients",[1]; [7],15
same,"PR + CR (positive response), row %",[1]; [8],58.8%
same,"PR + CR, number of patients",[1]; [8],20
same,"PR + CR (positive response), row %",[1]; [9],53.3%
same,"PR + CR, number of patients",[1]; [9],8
same,"PR + CR (positive response), row %",[1]; [10],42.9%
same,"PR + CR, number of patients",[1]; [10],3
same,"PR + CR (positive response), row %",[1]; [11],62.5%
same,"PR + CR, number of patients",[1]; [11],5
same,"PR + CR (positive response), row %",[1]; [12],65.9%
same,"PR + CR, number of patients",[1]; [12],27
same,"PR + CR (positive response), row %",[1]; [13],80.0%
same,"PR + CR, number of patients",[1]; [13],12
same,"PR + CR (positive response), row %",[1]; [14],57.7%
same,"PR + CR, number of patients",[1]; [14],15
same,"PR + CR (positive response), row %",[1]; [15],39.1%
same,"PR + CR, number of patients",[1]; [15],9
same,"PR + CR (positive response), row %",[1]; [16],50.0%
same,"PR + CR, number of patients",[1]; [16],5
same,"PR + CR (positive response), row %",[1]; [17],30.8%
same,"PR + CR, number of patients",[1]; [17],4
same,"PR + CR (positive response), row %","[1]; males only, includes uncertain genotype, Total 33",27.3%
same,"PR + CR, number of patients","[1]; whole cohort, both sexes, no exclusions, Total 107",53
same,"therapeutic responses, outcomes stratified to IDO2 genotype","[1]; in combination with gemcitabine in PDAC patients, patients harboring functional IDO2 alleles, initial cohort",trend in improved therapeutic responses
same,more frequent response than the expected population,"melanoma; female cohort, patients with the +/+ or +/p alleles",41%
same,less frequent response than the expected population,melanoma; female patients without the active allele (p/p),70%
same,overall survival,"melanoma; inactive IDO2 genetic configuration, adjuvant radiotherapy including treatment with indoximod",extended overall survival
